Reference: paper PMC8480901 (PLoS ONE, 2021)
“And” between values parts separate entries of the source, which are not always exact repeats. Equal entries are not always repeated.

System: TNF-α, IL-6, IL-1β, GM-CSF, CXCL-1, CXCL-2, CCL-2 and MMP-9 in lung tissue
Test: LPS-induced cytokines, chemokines and MMP-9 in mouse lung homogenates (Luminex, ELISA)
Details: lung homogenate, LPS; for CXCL1 / CXCL2 / GM-CSF / IL-1β / IL-6 / MMP9 / TNFα / CCL2: individual animal, listed as Lef; for CCL2 Mean / CXCL1, Mean / CXCL2, Mean / GM-CSF Mean / IL-1β Mean / IL-6 Mean / MMP9, Mean / TNFα Mean: mean of 8
Procedure: To induce pulmonary neutrophilia, mice in the control group received intranasal (IN) 50 μL saline, and all other animals received 5 μg LPS/50 μL saline IN per mouse.
After bronchoalveolar lavage, lungs were removed, weighed, snap frozen, and stored at −80°C until analysis. To homogenize the tissue, the frozen lungs were thawed and placed in Precellys CK28 Hard Tissue tubes (BERTIN Instruments, Montigny-le-Bretonneux, France) in 1 mL PBS (Gibco, Life Technologies, Paisley, UK) supplemented with protease inhibitors (Halt™ Protease Inhibitor Cocktail [100×]; Thermo Fisher Scientific, Rockford, IL, USA). A Precellys homogenizer (BERTIN Instruments) was used, shaking at 6800 rpm for three 30-second pulses separated by 15-second pauses. After homogenization, samples were centrifuged at 18,000×g for 10 minutes at 4°C, and the supernatants were collected for analysis.
Concentrations of tumor necrosis factor (TNF)-α, IL-6, granulocyte-macrophage colony-stimulating factor (GM-CSF), chemokine (C-X-C motif) ligand (CXCL)-1, CXCL-2, and chemokine (C-C motif) ligand (CCL)-2 in mouse lung homogenates were analyzed with the Mouse Premixed Multi-Analyte Kit (R&D Systems, Minneapolis, MN, USA) per the manufacturer’s protocol and using a Luminex 200 System (Luminex Corporation, Austin, TX, USA). Cytokine and chemokine concentrations were determined from blank-corrected median fluorescence intensity of each sample via xPONENT® software (Luminex Corporation), interpolating from standard curves generated with a 5-parameter logistic curve-fit.
Mouse Total MMP (matrix metalloprotease)-9 and IL-1β/IL-1F2 DuoSet ELISA (enzyme-linked immunosorbent assay) kits (R&D Systems) were used to measure concentrations of MMP-9 and IL-1β, respectively, in lung homogenates per the manufacturer’s protocols. Absorbance at 450 nm was measured using the SpectraMax i3 (Molecular Devices, San Jose, CA, USA). Concentrations of MMP-9 and IL-1β in samples were determined by interpolation from standard curves.
Differences between treated versus vehicle groups were determined using the Mann-Whitney test and were considered statistically significant when P<0.05. Outliers in the analysis of cytokine and chemokine concentrations were identified using the Grubbs test. No criteria were set for inclusion/exclusion of animals during the experiment or data points during the analysis.

C=C[C@]1(C)C[C@@H](OC(=O)CS[C@@H]2CC[C@@H](N)C[C@H]2O)[C@]2(C)[C@H](C)CC[C@]3(CCC(=O)[C@H]32)[C@@H](C)[C@@H]1O [Lefamulin]
CXCL1 (10 mg/kg): 6971.93 pg/mL and 4329.90 pg/mL and 5523.90 pg/mL and 4582.09 pg/mL and 5582.50 pg/mL and 5633.76 pg/mL and 4136.19 pg/mL and 3104.94 pg/mL | CXCL2 (10 mg/kg): 5052.98 pg/mL and 3065.52 pg/mL and 3267.04 pg/mL and 2748.29 pg/mL and 3142.03 pg/mL and 3891.00 pg/mL and 3712.25 pg/mL and 1806.80 pg/mL | GM-CSF (10 mg/kg): 67.71 pg/mL and 29.84 pg/mL and 24.75 pg/mL and 26.44 pg/mL and 92.13 pg/mL and 45.24 pg/mL | IL-1β (10 mg/kg): 13048 pg/mL and 11802 pg/mL and 8955 pg/mL and 11618 pg/mL and 14924 pg/mL and 15796 pg/mL and 14205 pg/mL and 13632 pg/mL | IL-6 (10 mg/kg): 250.42 pg/mL and 122.57 pg/mL and 71.56 pg/mL and 75.97 pg/mL and 378.35 pg/mL and 273.00 pg/mL and 109.22 pg/mL | MMP9 (10 mg/kg): 2581 pg/mL and 2222 pg/mL and 2051 pg/mL and 2196 pg/mL and 2373 pg/mL and 1878 pg/mL and 2354 pg/mL and 2294 pg/mL | TNFα (10 mg/kg): 82.13 pg/mL and 385.92 pg/mL and 198.20 pg/mL and 183.71 pg/mL and 132.63 pg/mL and 135.37 pg/mL and 337.98 pg/mL and 306.86 pg/mL | CCL2 Mean (10 mg/kg): 764 pg/mL | CXCL1, Mean (10 mg/kg): 4983 pg/mL | CXCL2, Mean (10 mg/kg): 3336 pg/mL | GM-CSF Mean (10 mg/kg): 43 pg/mL | IL-1β Mean (10 mg/kg): 12997 pg/mL | IL-6 Mean (10 mg/kg): 175 pg/mL | MMP9, Mean (10 mg/kg): 2244 pg/mL | TNFα Mean (10 mg/kg): 220 pg/mL | CCL2 % reduction (30 mg/kg): 105% | CXCL1 % reduction (30 mg/kg): 52% | CXCL2 % reduction (30 mg/kg): 61% | GM-CSF % reduction (30 mg/kg): 95% | IL-1β % reduction (30 mg/kg): 8% | IL-6 % reduction (30 mg/kg): 120% | MMP9 % reduction (30 mg/kg): 26% | TNFα % reduction (30 mg/kg): 77% | CCL2 (30 mg/kg): 664.18 pg/mL and 229.87 pg/mL and 256.42 pg/mL and 281.81 pg/mL and 306.24 pg/mL and 172.04 pg/mL | CXCL1 (30 mg/kg): 9099.72 pg/mL and 7572.60 pg/mL and 6087.32 pg/mL and 5765.52 pg/mL and 5509.25 pg/mL and 4685.62 pg/mL and 6328.54 pg/mL and 4359.63 pg/mL | CXCL2 (30 mg/kg): 7789.00 pg/mL and 4810.48 pg/mL and 4106.80 pg/mL and 4675.09 pg/mL and 4634.09 pg/mL and 3899.14 pg/mL and 3943.89 pg/mL and 3825.96 pg/mL | GM-CSF (30 mg/kg): 46.10 pg/mL and 24.75 pg/mL and 27.29 pg/mL and 23.05 pg/mL and 21.37 pg/mL and 16.32 pg/mL and 9.66 pg/mL | IL-1β (30 mg/kg): 12246 pg/mL and 8161 pg/mL and 9564 pg/mL and 10656 pg/mL and 10104 pg/mL and 9202 pg/mL and 9081 pg/mL and 11831 pg/mL | IL-6 (30 mg/kg): 118.12 pg/mL and 87.03 pg/mL and 60.54 pg/mL and 67.15 pg/mL and 58.34 pg/mL and 45.17 pg/mL and 29.90 pg/mL and 48.46 pg/mL | MMP9 (30 mg/kg): 2129 pg/mL and 1886 pg/mL and 1848 pg/mL and 1924 pg/mL and 1726 pg/mL and 1867 pg/mL and 2081 pg/mL and 2097 pg/mL | TNFα (30 mg/kg): 186.35 pg/mL and 395.67 pg/mL and 202.12 pg/mL and 215.17 pg/mL and 246.13 pg/mL and 275.41 pg/mL and 284.25 pg/mL and 181.07 pg/mL | CCL2 Mean (30 mg/kg): 296 pg/mL | CXCL1, Mean (30 mg/kg): 6176 pg/mL | CXCL2, Mean (30 mg/kg): 4711 pg/mL | GM-CSF Mean (30 mg/kg): 23 pg/mL | IL-1β Mean (30 mg/kg): 10106 pg/mL | IL-6 Mean (30 mg/kg): 64 pg/mL | MMP9, Mean (30 mg/kg): 1945 pg/mL | TNFα Mean (30 mg/kg): 248 pg/mL | CCL2 % reduction (100 mg/kg): 107% | CXCL1 % reduction (100 mg/kg): 57% | CXCL2 % reduction (100 mg/kg): 64% | GM-CSF % reduction (100 mg/kg): 96% | IL-1β % reduction (100 mg/kg): 24% | IL-6 % reduction (100 mg/kg): 117% | MMP9 % reduction (100 mg/kg): 53% | TNFα % reduction (100 mg/kg): 81% | CCL2 (100 mg/kg): 329.86 pg/mL and 256.42 pg/mL and 172.04 pg/mL and 139.64 pg/mL | CXCL1 (100 mg/kg): 7499.26 pg/mL and 6087.32 pg/mL and 5076.24 pg/mL and 5758.20 pg/mL and 5443.29 pg/mL and 4906.96 pg/mL and 4656.06 pg/mL and 5472.61 pg/mL | CXCL2 (100 mg/kg): 5382.65 pg/mL and 5518.93 pg/mL and 4695.59 pg/mL and 3380.13 pg/mL and 4061.97 pg/mL and 3178.30 pg/mL and 3700.08 pg/mL and 4913.16 pg/mL | GM-CSF (100 mg/kg): 21.37 pg/mL and 19.68 pg/mL and 33.25 pg/mL and 14.65 pg/mL and 16.32 pg/mL and 11.32 pg/mL | IL-1β (100 mg/kg): 10645 pg/mL and 6459 pg/mL and 7591 pg/mL and 8558 pg/mL and 9892 pg/mL and 7429 pg/mL and 7844 pg/mL and 8730 pg/mL | IL-6 (100 mg/kg): 135.95 pg/mL and 78.18 pg/mL and 127.03 pg/mL and 99.22 pg/mL and 71.56 pg/mL and 56.14 pg/mL and 105.88 pg/mL | MMP9 (100 mg/kg): 2385 pg/mL and 1353 pg/mL and 1095 pg/mL and 1490 pg/mL and 1351 pg/mL and 1232 pg/mL and 1807 pg/mL and 1236 pg/mL | TNFα (100 mg/kg): 204.74 pg/mL and 121.62 pg/mL and 366.33 pg/mL and 248.69 pg/mL and 116.08 pg/mL and 181.07 pg/mL and 124.38 pg/mL and 233.28 pg/mL | CCL2 Mean (100 mg/kg): 209 pg/mL | CXCL1, Mean (100 mg/kg): 5612 pg/mL | CXCL2, Mean (100 mg/kg): 4354 pg/mL | GM-CSF Mean (100 mg/kg): 19 pg/mL | IL-1β Mean (100 mg/kg): 8394 pg/mL | IL-6 Mean (100 mg/kg): 91 pg/mL | MMP9, Mean (100 mg/kg): 1494 pg/mL | TNFα Mean (100 mg/kg): 200 pg/mL
